Measured values taken from US9371320B2, “Heterocyclic compound” (TAKEDA PHARMACEUTICAL COMPANY LIMITED, priority 2012, dated 2016).

Key:
JAK1 = target: T1, JAK1 (Homo sapiens, UniProt P23458); test: JAK1 enzyme inhibition test (LANCE method); type: biochemical; details: for inhibition at 1 µM: read-out: Inhibitory rate (%) JAK1 1 μM
T1 construct: purchased Invitrogen
Description: JAK1 Enzyme Inhibition Test
(§1) JAK1 enzyme inhibitory activity of test compounds was measured by LANCE method (PerkinElmer). First, a test compound diluted with assay buffer (50 mM HEPES (pH=7.5), 10 mM MgCl2, 1 mM EGTA, 2 mM DTT, 0.01% Tween20, 0.01% BSA) was added to 384-well plate at 2 μL each. Then, a JAK1 (Invitrogen) solution and a fluorescence-labeled peptide substrate (ULight-JAK1, PerkinElmer) solution diluted with assay buffer at 187.5 ng/mL and 300 nM, respectively were added at 2 μL each. Then, enzyme reaction was started by adding 2 μL each of ATP solution prepared with assay buffer at 150 μM. After the reaction at room temperature for 1 hr, Detection Buffer (PerkinElmer) prepared to be 20 mM EDTA, 4 nM europium-labeled anti-phosphotyrosine antibody (PerkinElmer) was added at 6 μL each. After standing at room temperature for 1 hr, fluorescence intensity (excitation wavelength 340 nm, fluorescence wavelength 665 nm, delay time 100 microsecond) was measured by a plate reader, Envision (PerkinElmer). The inhibitory activity of each compound was calculated as relative value where fluorescence intensity of a well without enzyme is considered as 100% inhibition.

Tyk2 = target: T2, Tyk2 (Homo sapiens, UniProt P29597); test: Tyk2 enzyme inhibition test (LANCE method); type: biochemical; details: for inhibition at 1 µM: read-out: Inhibitory rate (%) Tyk2 1 μM
T2 construct: purchased Invitrogen
T2 sequence (P29597 whole entry): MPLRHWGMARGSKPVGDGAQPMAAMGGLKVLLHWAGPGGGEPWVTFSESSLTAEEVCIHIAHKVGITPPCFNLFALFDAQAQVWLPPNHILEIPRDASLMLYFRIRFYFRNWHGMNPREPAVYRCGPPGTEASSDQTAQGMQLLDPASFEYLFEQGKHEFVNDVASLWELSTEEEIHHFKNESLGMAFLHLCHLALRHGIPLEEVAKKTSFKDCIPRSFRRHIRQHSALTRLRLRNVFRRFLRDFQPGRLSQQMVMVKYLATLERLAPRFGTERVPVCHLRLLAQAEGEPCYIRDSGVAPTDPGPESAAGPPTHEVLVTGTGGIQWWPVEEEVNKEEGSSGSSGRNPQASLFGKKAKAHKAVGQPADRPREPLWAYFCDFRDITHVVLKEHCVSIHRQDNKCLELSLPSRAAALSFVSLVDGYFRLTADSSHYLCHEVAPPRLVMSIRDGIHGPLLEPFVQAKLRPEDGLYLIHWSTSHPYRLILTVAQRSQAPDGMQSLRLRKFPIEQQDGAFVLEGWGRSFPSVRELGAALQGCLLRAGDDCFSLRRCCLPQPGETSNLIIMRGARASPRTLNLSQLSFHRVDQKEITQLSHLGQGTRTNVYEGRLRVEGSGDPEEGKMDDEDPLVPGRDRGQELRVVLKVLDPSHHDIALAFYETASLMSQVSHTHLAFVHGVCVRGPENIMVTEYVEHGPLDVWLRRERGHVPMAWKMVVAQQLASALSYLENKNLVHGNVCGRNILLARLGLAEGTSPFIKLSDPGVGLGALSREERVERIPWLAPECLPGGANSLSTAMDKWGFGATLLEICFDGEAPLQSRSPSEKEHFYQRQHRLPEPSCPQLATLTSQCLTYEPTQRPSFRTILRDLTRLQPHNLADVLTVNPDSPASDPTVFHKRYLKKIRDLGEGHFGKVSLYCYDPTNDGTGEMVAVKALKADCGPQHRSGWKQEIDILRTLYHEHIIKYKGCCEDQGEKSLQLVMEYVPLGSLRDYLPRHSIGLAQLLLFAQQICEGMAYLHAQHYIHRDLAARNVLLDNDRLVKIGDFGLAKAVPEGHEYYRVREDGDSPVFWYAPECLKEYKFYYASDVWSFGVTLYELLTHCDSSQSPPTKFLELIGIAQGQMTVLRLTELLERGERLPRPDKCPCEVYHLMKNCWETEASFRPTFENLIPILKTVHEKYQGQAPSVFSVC
Description: Tyk2 Enzyme Inhibition Test
as §1, with “Tyk2 enzyme” for “JAK1 enzyme”, “a Tyk2” for “a JAK1”, “at 375” for “at 187.5”, “at 30” for “at 150”

T1 sequence (P23458 whole entry): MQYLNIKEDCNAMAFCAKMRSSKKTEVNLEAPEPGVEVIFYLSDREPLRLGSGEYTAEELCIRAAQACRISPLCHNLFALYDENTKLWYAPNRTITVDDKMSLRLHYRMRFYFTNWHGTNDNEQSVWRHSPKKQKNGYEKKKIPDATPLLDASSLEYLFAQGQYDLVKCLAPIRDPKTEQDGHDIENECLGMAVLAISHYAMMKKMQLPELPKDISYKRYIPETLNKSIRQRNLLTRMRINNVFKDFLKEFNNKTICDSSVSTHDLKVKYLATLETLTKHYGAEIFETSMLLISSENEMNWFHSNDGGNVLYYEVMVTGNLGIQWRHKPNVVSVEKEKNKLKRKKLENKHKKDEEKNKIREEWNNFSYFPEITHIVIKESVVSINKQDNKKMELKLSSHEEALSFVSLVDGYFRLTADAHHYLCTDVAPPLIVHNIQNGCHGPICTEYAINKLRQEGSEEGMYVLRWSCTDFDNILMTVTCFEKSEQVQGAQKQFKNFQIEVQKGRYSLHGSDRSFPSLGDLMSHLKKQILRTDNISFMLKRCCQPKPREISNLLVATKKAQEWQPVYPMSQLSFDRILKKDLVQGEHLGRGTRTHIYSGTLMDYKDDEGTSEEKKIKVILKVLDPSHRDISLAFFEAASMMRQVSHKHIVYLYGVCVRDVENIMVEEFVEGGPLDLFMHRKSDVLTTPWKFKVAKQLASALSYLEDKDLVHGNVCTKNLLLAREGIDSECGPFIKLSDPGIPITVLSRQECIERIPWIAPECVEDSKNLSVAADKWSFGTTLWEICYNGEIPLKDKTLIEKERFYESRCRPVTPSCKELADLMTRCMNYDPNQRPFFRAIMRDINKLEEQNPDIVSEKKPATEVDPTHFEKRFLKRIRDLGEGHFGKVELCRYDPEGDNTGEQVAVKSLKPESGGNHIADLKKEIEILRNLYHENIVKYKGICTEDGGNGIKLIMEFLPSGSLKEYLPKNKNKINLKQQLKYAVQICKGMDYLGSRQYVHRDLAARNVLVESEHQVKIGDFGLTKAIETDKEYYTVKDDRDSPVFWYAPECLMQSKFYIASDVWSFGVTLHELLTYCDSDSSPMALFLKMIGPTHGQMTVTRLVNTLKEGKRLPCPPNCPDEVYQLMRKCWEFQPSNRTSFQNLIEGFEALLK

| SMILES | inhibition at 1 µM (JAK1; test compound 1 μM) | inhibition at 1 µM (Tyk2; test compound 1 μM) | further results |
| --- | --- | --- | --- |
| CCC(COC)n1cc(-c2ccc(C#N)cc2)c2c(=O)[nH]ccc21 (centres unmarked) [Example 24, 4-(1-(1-methoxybutan-2-yl)-4-oxo-4,5-dihydro-1H-pyrrolo[3,2-c]pyridin-3-yl)benzonitrile] | 35% | 33% | – |
| N#CCc1ccc(-c2cn(C3CCOCC3)c3cc[nH]c(=O)c23)cc1 [Example 25, (4-(4-oxo-1-(tetrahydro-2H-pyran-4-yl)-4,5-dihydro-1H-pyrrolo[3,2-c]pyridin-3-yl)phenyl)acetonitrile] | 77% | 71% | – |
| CCC(COC)n1cc(-c2ccc(C(N)=O)cc2)c2c(=O)[nH]ccc21 (centres unmarked) [Example 26, 4-(1-(1-methoxybutan-2-yl)-4-oxo-4,5-dihydro-1H-pyrrolo[3,2-c]pyridin-3-yl)benzamide] | 20% | 41% | – |
| NC(=O)c1cc(-c2nn(C3CCOCC3)c3cc[nH]c(=O)c23)cs1 [Example 27, 4-(4-oxo-1-(tetrahydro-2H-pyran-4-yl)-4,5-dihydro-1H-pyrazolo[4,3-c]pyridin-3-yl)thiophene-2-carboxamide] | 98% | 98% | – |
| NS(=O)(=O)c1ccc(-c2nn(C3CCCOC3)c3cc[nH]c(=O)c23)cc1 (centres unmarked) [Example 28, 4-(4-oxo-1-(tetrahydro-2H-pyran-3-yl)-4,5-dihydro-1H-pyrazolo[4,3-c]pyridin-3-yl)benzenesulfonamide] | – | – | Inhibitory rate (%) JAK1 1 μM (JAK1; test compound 1 μM): 99%; Inhibitory rate (%) Tyk2 1 μM (Tyk2; test compound 1 μM): 97% |
| COC(=O)c1c[nH]c(=O)c2c(-c3ccc(C(N)=O)cc3)cn(C3CCCC3)c12 [Example 29, methyl 3-(4-carbamoylphenyl)-1-cyclopentyl-4-oxo-4,5-dihydro-1H-pyrrolo[3,2-c]pyridine-7-carboxylate] | 14% | 83% | – |
| NS(=O)(=O)c1ccc(-c2nn(-c3ccccc3)c3cc[nH]c(=O)c23)cc1 [Example 30, 4-(4-oxo-1-phenyl-4,5-dihydro-1H-pyrazolo[4,3-c]pyridin-3-yl)benzenesulfonamide] | 94% | 92% | – |
| NS(=O)(=O)c1ccc(-c2cn([C@H]3CC[C@H](O)CC3)c3cc[nH]c(=O)c23)cc1 [Example 31, 4-(1-(trans-4-hydroxycyclohexyl)-4-oxo-4,5-dihydro-1H-pyrrolo[3,2-c]pyridin-3-yl)benzenesulfonamide] | 95% | 90% | – |
| NS(=O)(=O)c1ccc(-c2cn([C@H]3CC[C@@H](O)CC3)c3cc[nH]c(=O)c23)cc1 [Example 32, 4-(1-(cis-4-hydroxycyclohexyl)-4-oxo-4,5-dihydro-1H-pyrrolo[3,2-c]pyridin-3-yl)benzenesulfonamide] | 98% | 95% | – |
| N#Cc1c[nH]c(=O)c2c(-c3csc(C(N)=O)c3)cn(C3CCCC3)c12 [Example 33, 4-(7-cyano-1-cyclopentyl-4-oxo-4,5-dihydro-1H-pyrrolo[3,2-c]pyridin-3-yl)thiophene-2-carboxamide] | 99% | 99% | – |
| COC(=O)c1c[nH]c(=O)c2c(-c3csc(C(N)=O)c3)cn(C3CCCC3)c12 [Example 34, methyl 3-(5-carbamoyl-3-thienyl)-1-cyclopentyl-4-oxo-4,5-dihydro-1H-pyrrolo[3,2-c]pyridine-7-carboxylate] | 92% | 99% | – |
| NS(=O)(=O)c1ccc(-c2nn(-c3c(F)cccc3F)c3cc[nH]c(=O)c23)cc1 [Example 35, 4-(1-(2,6-difluorophenyl)-4-oxo-4,5-dihydro-1H-pyrazolo[4,3-c]pyridin-3-yl)benzenesulfonamide] | 99% | 97% | – |
| COC(=O)c1cc(-c2nn(-c3c(F)cccc3F)c3cc[nH]c(=O)c23)cs1 [Example 36, methyl 4-(1-(2,6-difluorophenyl)-4-oxo-4,5-dihydro-1H-pyrazolo[4,3-c]pyridin-3-yl)thiophene-2-carboxylate] | 97% | 98% | – |
| O=C(O)c1cc(-c2nn(-c3c(F)cccc3F)c3cc[nH]c(=O)c23)cs1 [Example 37, 4-(1-(2,6-difluorophenyl)-4-oxo-4,5-dihydro-1H-pyrazolo[4,3-c]pyridin-3-yl)thiophene-2-carboxylic acid] | 99% | 99% | – |
| NC(=O)c1cc(-c2nn(-c3c(F)cccc3F)c3cc[nH]c(=O)c23)cs1 [Example 38, 4-(1-(2,6-difluorophenyl)-4-oxo-4,5-dihydro-1H-pyrazolo[4,3-c]pyridin-3-yl)thiophene-2-carboxamide] | 100% | 99% | – |
| N#CCc1ccc(-c2nn(-c3c(F)cccc3F)c3cc[nH]c(=O)c23)cc1 [Example 39, (4-(1-(2,6-difluorophenyl)-4-oxo-4,5-dihydro-1H-pyrazolo[4,3-c]pyridin-3-yl)phenyl)acetonitrile] | 99% | 98% | – |
| NC(=O)c1cc(-c2cn(C3CCCC3)c3c(CO)c[nH]c(=O)c23)cs1 [Example 40, 4-(1-cyclopentyl-7-(hydroxymethyl)-4-oxo-4,5-dihydro-1H-pyrrolo[3,2-c]pyridin-3-yl)thiophene-2-carboxamide] | 78% | 78% | – |
| O=c1[nH]ccc2c1c(C1=CCCCC1)nn2C1CCCC1 [Example 41, 3-(cyclohex-1-en-1-yl)-1-cyclopentyl-1,5-dihydro-4H-pyrazolo[4,3-c]pyridin-4-one] | – | – | inhibition at 10 µM (JAK1; test compound 10 μM, read-out: Inhibitory rate (%) JAK1 10 μM): 38%; inhibition at 10 µM (Tyk2; test compound 10 μM, read-out: Inhibitory rate (%) Tyk2 10 μM): 49% |
| O=c1[nH]ccc2c1c(C1=CCOCC1)nn2C1CCCC1 [Example 42, 1-cyclopentyl-3-(3,6-dihydro-2H-pyran-4-yl)-1,5-dihydro-4H-pyrazolo[4,3-c]pyridin-4-one] | 53% | 51% | – |
| O=c1[nH]ccc2c1c(-c1ccccc1)nn2C1CCCC1 [Example 43, 1-cyclopentyl-3-phenyl-1,5-dihydro-4H-pyrazolo[4,3-c]pyridin-4-one] | 87% | 91% | – |
| O=c1[nH]ccc2c1c(-c1ccncc1)nn2C1CCCC1 [Example 44, 1-cyclopentyl-3-(pyridin-4-yl)-1,5-dihydro-4H-pyrazolo[4,3-c]pyridin-4-one] | 94% | 91% | – |
| O=c1[nH]ccc2c1c(-c1ccc(OC(F)(F)F)cc1)nn2C1CCCC1 [Example 45, 1-cyclopentyl-3-(4-(trifluoromethoxy)phenyl)-1,5-dihydro-4H-pyrazolo[4,3-c]pyridin-4-one] | 90% | 74% | – |
| COc1ccc(-c2nn(C3CCCC3)c3cc[nH]c(=O)c23)cc1 [Example 46, 1-cyclopentyl-3-(4-methoxyphenyl)-1,5-dihydro-4H-pyrazolo[4,3-c]pyridin-4-one] | 91% | 95% | – |
| COc1cccc(-c2nn(C3CCCC3)c3cc[nH]c(=O)c23)c1 [Example 47, 1-cyclopentyl-3-(3-methoxyphenyl)-1,5-dihydro-4H-pyrazolo[4,3-c]pyridin-4-one] | 62% | 71% | – |
| COc1ccccc1-c1nn(C2CCCC2)c2cc[nH]c(=O)c12 [Example 48, 1-cyclopentyl-3-(2-methoxyphenyl)-1,5-dihydro-4H-pyrazolo[4,3-c]pyridin-4-one] | 3% | 7% | – |
| O=c1[nH]ccc2c1c(-c1ccc3c(c1)OCO3)nn2C1CCCC1 [Example 49, 3-(1,3-benzodioxol-5-yl)-1-cyclopentyl-1,5-dihydro-4H-pyrazolo[4,3-c]pyridin-4-one] | 85% | 89% | – |
| Cc1ccc(-c2nn(C3CCCC3)c3cc[nH]c(=O)c23)cc1 [Example 50, 1-cyclopentyl-3-(4-methylphenyl)-1,5-dihydro-4H-pyrazolo[4,3-c]pyridin-4-one] | 92% | 92% | – |
| O=c1[nH]ccc2c1c(-c1ccc(C(F)(F)F)cc1)nn2C1CCCC1 [Example 51, 1-cyclopentyl-3-(4-(trifluoromethyl)phenyl)-1,5-dihydro-4H-pyrazolo[4,3-c]pyridin-4-one] | 90% | 84% | – |
